{"source": "patent US9980982B2", "about": "“HE4 based therapy for malignant disease” (Women & Infants Hospital of Rhode Island, priority 2011, dated 2018)", "key": {"[1]": {"system": "ovarian cancer (SKOV-3) cells xenograft", "experiment": "Antisense HE4 oligos in ovarian cancer (SKOV-3) xenografted animals", "type": "in vivo, nude mice", "conditions": "7 mg/kg bwt, IP, 5 days/week; for effect on tumor progression / tumor burden: within 28 days, versus scrambled, sense oligos and vehicle", "protocol": "Left: Effect of treatment of antisense HE4 oligos (“HE4 antisense 1” corresponds to SEQ ID NO:2 and “HE4 antisense 2” corresponds to SEQ ID NO:4; red and violet, respectively), sense HE4 oligos (green), vehicle, and scrambled sequences (7 mg/kg bwt, IP) 5 days/week on the tumor size in animals xenografted with ovarian cancer (SKOV-3) cells. Right: the weight of the animals treated with oligos progressed as the day progressed, and no toxicity was observed.\nHE4 overexpression promoted ovarian cancer burden in animals (FIG. 24), and caused strong chemoresistance against cisplatin in animals (FIG. 26). Thus, a set of antisense oligos were designed to knockdown the expression levels of HE4 in animals xenografted with ovarian cancer (SKOV-3) cells. Treatment at 5 days/week with antisense HE4 phosphorothio oligos suppressed the tumor progression in animals compared to scrambled or sense HE4 oligos and vehicle treated control within 28 days of the treatment."}, "HE4": {"system": "HE4", "experiment": "HE4 levels in SKOV-3 cell lysates and media by sandwich ELISA", "type": "cell-based, Human", "conditions": "for effect on HE4 levels in SKOV-3: cytotoxic agents, 24 hrs, serum free DMEM, versus untreated controls; for effect on HE4 levels in media or cell-lysate of SKOV-3 cells: growth factors and cytokines, 6 hours", "protocol": "(§1) Various agents were examined by RT-PCR or by a sandwich ELISA. […] HE4 levels in cell lysates and media were evaluated by a sandwich ELISA.\nCells were grown for 24 h in 100 mm cell culture dishes (Corning, New York, N.Y.), supernatant collected and lysates of washed and scraped cells prepared as described previously (Lange T S et al., 2007Chem Biol Drug Design, 70:302-10). Total protein of lysates was quantitated (BioRad protein estimation kit, Hercules, Calif.), and HE4 levels were determined using the HE4 EIA assay (Fujirebio Diagnostics, Malvern, Pa.), a solid-phase, non-competitive immunoassay using two mouse monoclonal antibodies, directed against two epitopes in the C-WFDC domain. Calibration curves were used to measure HE4 concentrations in both cell lysates and culture media allowing for the calculation of production and secretion of HE4 in pmol/g total cellular protein.\nFIG. 15 is a bar chart showing that treatment with growth factors and cytokines affect the HE4 levels in ovarian cancer cells. SKOV-3 cells (1 million each) were seeded in 100 mm dishes and incubated overnight. The cells were treated with an array of factors (IL-6, Insulin, TNFa, EGF) and incubated for another 6 hours. The media was collected and cells were lysed using the cell lysis buffer. The HE4 content in the media or in the cell-lysate was examined by a HE4 sandwich ELISA kit."}, "[2]": {"system": "HE4 overexpressing SKOV-3 clones HE4C1, -C3, -C7", "experiment": "MTS cell viability assay, HE4 overexpressing SKOV-3 clones", "type": "cell-based, Human", "conditions": "24 h; for viability at 20 µM: Homo sapiens, SK-OV-3, 24 h, 20 μM doxorubicin, untreated = 100%; for response of HE4 overexpressing SKOV-3 clones to drug treatment (viability, words): clones HE4C1, -C3, -C7, compared to parental SKOV-3", "protocol": "An HE4 overexpressing vector for stable expression was engineered by inserting a coding sequence of human WAP four-disulfide core domain 2 (WFDC2) cDNA into a multiple cloning site of an eukaryotic expression vector, pCMV6-entry (Origene, Rockville, Md.). Transfection of the constructs in SKOV-3 cells was performed using Lipofectamine 2000 (Invitrogen, Carlsbad, Calif.) according to the manufacturer's instructions. Stably transfected cells were selected by resistance to G-418 (500 μg/ml) (Research Products International, Mount Prospect, Ill.), applied 48 h after transfection and continued during cell culture. G-418 resistant cells were resuspended (density 5 cells/ml) in complete medium/G-418 and seeded as 200 μl/well on a 96 well cell culture plate (Corning, New York, N.Y.). Cells growing from single colonies (cloned; stable transfection) were isolated.\n(§2) Cell growth and viability of cell lines (complete medium, 24 h incubation) was determined by the CellTiter 96® AQueous One Solution Assay (Promega Corp, Madison, Wis.) following the manufacturer's recommendations with modifications (Lange T S et al., 2008 PLOS One, 3(5):e2303). Experiments are expressed as the mean of triplicate determinations (X±SD) of a representative experiment in OD (cell growth) or % of absorbance by drug-treated versus untreated cells [=100%] (cell viability). Cisplatin (CDDP), paclitaxel, doxorubicin and camptothecin (CPT) were purchased from (Sigma Aldrich, St. Louis, Mo.).\n(§3) To analyze the potential biological relevance of elevated HE4 production for ovarian cancer cells the efficacy of commonly used anticancer drugs was examined in a viability assay (FIG. 5). SKOV-3 clones or parental cells were treated with cisplatin, paclitaxel, doxorubicin, or camptothecin for 24 h in various concentrations as indicated and the cytotoxicity evaluated."}, "SKOV-3 cells": {"system": "SKOV-3 cells", "experiment": "MTS cell viability assay, parental/wild-type SKOV-3 cells", "type": "cell-based, Human", "conditions": "24 h", "protocol": "as §2, §3"}, "HE4 mRNA": {"system": "HE4 mRNA", "experiment": "HE4 mRNA expression in SKOV-3 cells by RT-PCR", "type": "cell-based, Human", "conditions": "stimulation in serum free DMEM (TNF 10 nM, Insulin 100 nM, EGF 10 nM, IL-6 10 nM)", "protocol": "as §1\nTotal RNA isolation from cells was carried out using TRIzol and Reverse transcription on 3 μg RNA using SuperScript III transcriptase according to the manufacturers protocol (Invitrogen, Carlsbad, Calif.) followed by 30 cycles of PCR using the following primer pairs: HE4 sense, 5′-AGG AGC AGA GAA GAC TGG-3′ (SEQ ID NO: 27); HE4 antisense, 5′-TTA TCA TTG GGC AGA GAG-3′ (SEQ ID NO: 28); GAPDH sense, 5′-AAT CCC ATC ACC ATC TTC C-3′ (SEQ ID NO: 29); GAPDH antisense, 5′-GTCCTTCCACGATACCAAAG-3′ (SEQ ID NO: 30). Cycle conditions: 94° C./1 min; 55° C./2 min, 72° C./2 min. PCR products were separated on 2% agarose gels containing 0.4 mg/ml of ethidium bromide."}}, "note": "Oligonucleotides are written 5' to 3', each unit as a sugar letter and its base; * is a phosphorothioate linkage, no mark a phosphodiester; rarer units and linkages stand in square brackets, end groups in braces. Plain capitals give the bases only. Starred links: 1 amine or outer side, 2 acyl side, 3 side chain; linkers in the order of their positions; H or OH if unused. Positions of bridges follow the written chain, without caps; N, C: chain ends. Non-standard residues stand in square brackets, D forms with d. Residues, ends and D or L forms follow the SMILES beside them. Chains are numbered I, II in the order given. Actinocin(9to1) = Cc1c2oc3c(C)ccc(C(=O)[*:1])c3nc-2c(C(=O)[*:2])c(N)c1=O; NMeV = CN[C@H](C(=O)O)C(C)C; d = 2'-deoxy (DNA); Sar = CNCC(=O)O"}
{"compound": "5′ A*C*A*C*C*T*T*C*C*C*A*C*A*G*C*C*A*T*T 3′ (DNA ACACCTTCCCACAGCCATT; DNA, all phosphorothioate, methylation of C not given here) [SEQ ID NO:5]", "values": [{"measurement": "effect on tumor progression / tumor burden", "setting": "[1]", "value": "showed tumor inhibitory activity"}]}
{"compound": "5′ A*C*A*C*C*T*T*C*C*C*A*C*A*G*C*C*A*T*T*G 3′ [SEQ ID NO:4]", "values": [{"measurement": "toxicity in animals (body weight)", "setting": "[1]", "value": "did not cause any toxicity"}, {"measurement": "effect on tumor progression / tumor burden", "setting": "[1]", "value": "strong reduction in tumor burden"}, {"measurement": "effect on tumor progression / tumor burden", "setting": "[1]; listed as HE4 antisense 2", "value": "suppressed the progression of ovarian tumor growth"}]}
{"compound": "5′ G*A*C*A*C*C*T*T*C*C*C*A*C*A*G*C*C*A*T 3′ (DNA GACACCTTCCCACAGCCAT; DNA, all phosphorothioate, methylation of C not given here) [SEQ ID NO:3]", "values": [{"measurement": "effect on tumor progression / tumor burden", "setting": "[1]", "value": "showed tumor inhibitory activity"}]}
{"compound": "5′ G*A*C*A*C*C*T*T*C*C*C*A*C*A*G*C*C*A*T*T 3′ (DNA dG*dA*dC*dA*dC*dC*dT*dT*dC*dC*dC*dA*dC*dA*dG*dC*dC*dA*dT*dT; antisense) [SEQ ID NO:1]", "values": [{"measurement": "effect on tumor progression / tumor burden", "setting": "[1]", "value": "showed tumor inhibitory activity"}]}
{"compound": "5′ G*A*C*A*C*C*T*T*C*C*C*A*C*A*G*C*C*A*T*T*G 3′ [SEQ ID NO:2]", "values": [{"measurement": "toxicity in animals (body weight)", "setting": "[1]", "value": "did not cause any toxicity"}, {"measurement": "effect on tumor progression / tumor burden", "setting": "[1]; listed as HE4 antisense 1", "value": "suppressed the progression of ovarian tumor growth"}]}
{"compound": "Cc1c2oc3c(C)ccc(C(=O)N[C@@H]4C(=O)N[C@H](C(C)C)C(=O)N5CCC[C@H]5C(=O)N(C)CC(=O)N(C)[C@@H](C(C)C)C(=O)O[C@@H]4C)c3nc-2c(C(=O)N[C@@H]2C(=O)N[C@H](C(C)C)C(=O)N3CCC[C@H]3C(=O)N(C)CC(=O)N(C)[C@@H](C(C)C)C(=O)O[C@@H]2C)c(N)c1=O", "note": "[Actinomycin-D] (I: T[dV]P[Sar][NMeV] / II: T[dV]P[Sar][NMeV]; ester I:1-I:C, II:1-II:C; linker I:N-II:N via Actinocin(9to1))", "values": [{"measurement": "effect on HE4 levels in SKOV-3", "setting": "HE4", "value": "suppressed HE4 levels"}]}
{"compound": "C=C1/C(=C\\C=C2/CCC[C@]3(C)[C@@H]([C@H](C)CCCC(C)(C)O)CC[C@@H]23)C[C@@H](O)C[C@@H]1O", "note": "[Calcitriol]", "values": [{"measurement": "effect on HE4 levels in SKOV-3", "setting": "HE4", "value": "upregulated HE4 expression"}]}
{"compound": "COc1cc2ncnc(Nc3ccc(F)c(Cl)c3)c2cc1OCCCN1CCOCC1", "note": "[Iressa]", "values": [{"measurement": "effect on HE4 levels in SKOV-3", "setting": "HE4", "value": "suppressed HE4 levels"}]}
{"compound": "CC[C@@]1(O)C(=O)OCc2c1cc1n(c2=O)Cc2cc3ccccc3nc2-1", "note": "[camptothecin]", "values": [{"measurement": "maximum difference in viability between wild-type cells and HE4C1, -3, -7", "setting": "[2]; camptothecin, at 1.2 μM", "value": "≤ 21", "unit": "%"}]}
{"compound": "COc1cccc2c1C(=O)c1c(O)c3c(c(O)c1C2=O)C[C@@](O)(C(=O)CO)C[C@@H]3O[C@H]1C[C@H](N)[C@H](O)[C@H](C)O1", "note": "[doxorubicin]", "values": [{"measurement": "viability at 20 µM", "setting": "SKOV-3 cells; Homo sapiens, SK-OV-3, wild-type SKOV-3, 20 μM doxorubicin, untreated = 100%", "value": 58, "unit": "%"}, {"measurement": "viability at 20 µM", "setting": "[2]; HE4C1", "value": 70, "unit": "%"}, {"measurement": "viability at 20 µM", "setting": "[2]; HE4C3", "value": 84, "unit": "%"}, {"measurement": "viability at 20 µM", "setting": "[2]; HE4C7", "value": 91, "unit": "%"}]}
{"compound": "CC(=O)O[C@H]1C(=O)[C@@]2(C)[C@H]([C@H](OC(=O)c3ccccc3)[C@]3(O)C[C@H](OC(=O)[C@H](O)[C@@H](NC(=O)c4ccccc4)c4ccccc4)C(C)=C1C3(C)C)[C@]1(OC(C)=O)CO[C@@H]1C[C@@H]2O", "note": "[paclitaxel]", "values": [{"measurement": "effect on HE4 levels in SKOV-3", "setting": "HE4", "value": "suppressed HE4 levels"}, {"measurement": "effect on viability of wild-type SKOV-3 cells", "setting": "SKOV-3 cells; paclitaxel 6.25, 12.5 or 25 nM, cisplatin 40 or 80 μM", "value": "reduced the viability of wild-type SKOV-3 cells drastically"}, {"measurement": "response of HE4 overexpressing SKOV-3 clones to drug treatment (viability, words)", "setting": "[2]", "value": "did not display a significantly altered viability"}, {"measurement": "response of HE4 overexpressing SKOV-3 clones to drug treatment (viability, words)", "setting": "[2]; listed as Paclitaxel", "value": "significantly reduced response"}]}
{"compound": "EGF: epidermal growth factor (NSDSECPLSHDGYCLHDGVCMYIEALDKYACNCVVGYIGERCQYRDLKWWELR; UniProt P01133 971-1023, looked up)", "values": [{"measurement": "effect on HE4 levels in media or cell-lysate of SKOV-3 cells", "setting": "HE4", "value": "elevate HE4 levels"}, {"measurement": "effect on mRNA expression of HE4 in SKOV-3 cells", "setting": "HE4 mRNA", "value": "did not affect mRNA expression of HE4"}]}
{"compound": "IL-6: cytokine", "values": [{"measurement": "effect on HE4 levels in media or cell-lysate of SKOV-3 cells", "setting": "HE4", "value": "suppresses the HE4 levels"}, {"measurement": "effect on mRNA expression of HE4 in SKOV-3 cells", "setting": "HE4 mRNA", "value": "did not affect mRNA expression of HE4"}]}
{"compound": "Insulin: growth factor", "values": [{"measurement": "effect on HE4 levels in media or cell-lysate of SKOV-3 cells", "setting": "HE4", "value": "elevate HE4 levels"}, {"measurement": "effect on mRNA expression of HE4 in SKOV-3 cells", "setting": "HE4 mRNA", "value": "did not affect mRNA expression of HE4"}]}
{"compound": "TNF-a", "values": [{"measurement": "effect on HE4 levels in media or cell-lysate of SKOV-3 cells", "setting": "HE4", "value": "does not alter HE4 levels"}, {"measurement": "effect on mRNA expression of HE4 in SKOV-3 cells", "setting": "HE4 mRNA", "value": "did not affect mRNA expression of HE4"}]}
{"compound": "Tunicamycin", "values": [{"measurement": "effect on HE4 levels in SKOV-3", "setting": "HE4", "value": "suppressed HE4 levels"}]}
